According to patent publication US9193777B2, “Method of treating cardiac arrhythmia with long acting atrial natriuretic peptide(LA-ANP)” (Mayo Foundation for Medical Education and Research, priority 2009, dated 2015):
Marks after values point to notes of the source that are not given here.

What was measured:
[1] = test system: isolated perfused hearts obtained from male rats; experiment: Isolated heart model: atrial monophasic action potential and effective refractory period; details: isolated rat heart; for effect on MAP duration (in words): 40-minute perfusion; for decrease in MAPD90 versus baseline: mANP n=8, ANP n=10
Experimental: Atrial monophasic action potentials and effective refractory periods were measured in isolated perfused hearts obtained from male rats. Rapid cardiectomy was performed in male rats weighing 300-350 g, under general anesthesia with pentobarbital. The hearts were retrogradely perfused via the aorta at constant pressure and temperature (100 mmHg and 37° C.) with Kreb's-Henseleit buffer filtered at 0.22 μm and bubbled with 95% O2/5% CO2 at 37° C. and pH 7.4. Coronary perfusion flow was monitored constantly (T402, Transonic Systems, Ithaca, N.Y.) and remained >10 ml/min.
After establishment of a stable perfused heart preparation, the posterior atria were cut away to expose the left and right atrial endocardium and the atrioventricular (AV) node was mechanically crushed, resulting in AV dissociation. The right atrium was paced (Bloom Electrophysiology, via Fischer Imaging, Denver, Colo.) at a cycle length of 150 msec with a 0.1 msec pulse width using a bipolar platinum-tipped electrode (NuMED, Inc., Hopkinton, N.Y.), while the right ventricle was paced at a cycle length of 500 msec. A monophasic action potential (MAP) probe (Harvard Apparatus, Holliston, Mass.) was maintained in a single position on the anterior left atrial endocardium. Amplified signals (IsoDam, World Precision Instruments, Sarasota, Fla.) were digitally acquired at 2 kHz (USB-6210 and LabVIEW 8.2, National Instruments, Austin, Tex.). The MAP duration was measured at 90% repolarization on atrial beats without far field ventricular interference. The effective refractory period (ERP) was measured by delivering extrastimuli via the pacing catheter at decremental coupling intervals following at least 8 beats of a 150 ms cycle-length drive train. […] In separate heart preparations, the perfusion buffer was supplemented after baseline data acquisition with 100 nM of either ANP or mANP to assess the effect of both the wild-type and mutant hormones on MAP duration and ERP.
A two-sided t-test was used for comparison of data, assuming equal variance. Data are expressed as mean±S.E., and results were considered significant at p<0.05.

[2] = test system: 10 week old male FVB mice; experiment: Programmed electrical stimulation of the ventricles in anesthetized mice; type: in vivo, mouse; details: for ERP versus 30 minute saline group (in words) / ERP (ventricular effective refractory period) / Heart rate / PR interval / QRST interval: anesthetized mice; for ERP versus 30 minute saline group (in words): 30 minute treatment, ANOVA; for ERP (ventricular effective refractory period) / Heart rate / PR interval / QRST interval: after 30 minute peritoneal infusion 33 pmol/kg/min following 330 pmol/kg bolus, n=3; for VT score: sum over three mice, after 30 minute infusion, higher score = greater resistance to arrhythmia induction
Experimental: Programmed electrical stimulation of the ventricles was performed across the diaphragm via bipolar electrode catheter placed through an abdominal incision in 10 week old male FVB mice anesthetized with inhaled isoflurane, and was continuously monitored by electrocardiogram. Electrophysiologic parameters were analyzed at baseline and after a 30 minute peritoneal infusion of saline vs. 33 pmol/kg/min ANP or mANP, following a 330 pmol/kg bolus. […] The ventricular tachycardia (VT) score was obtained by scoring 1 point for induction of sustained VT with a single extrastimulus, 2 points for induction with double extrastimuli, and 3 points for failure to induce with single or double extrastimuli. Nonsustained VT (less than 1 second) was not scored. The score for each of three mice in a group was added. A higher score indicates greater resistance to arrhythmia induction.

[3] = 100 nM, 40 minutes perfusion, mean±S.E.

Molecule	effect on MAP duration (in words) ([1]; 100 nM)	reduction in effective refractory period (ERP) versus baseline ([1]; 100 nM, 40 minutes perfusion, mean±S.E., mANP n=7, ANP n=6)	decrease in MAPD90 versus baseline [1, 3]	effect on ERP (in words) ([1]; 100 nM, compared to wild-type ANP)	MAP duration at 90% repolarization (MAPD90), representative MAP ([1]; after 40-minute perfusion with 100 nM peptide, shortened from 47 msec at baseline)	ERP versus 30 minute saline group (in words) [2]	ERP (ventricular effective refractory period) [2]	Heart rate [2]	PR interval [2]	QRST interval [2]	VT score [2]
mANP: Full-length 40-amino acid mutant ANP: normal 28-amino acid mature peptide plus an anomalous carboxyl-terminus of 12 residues (SLRRSSCFGGRMDRIGAQSGLGCNSFRYRITAREDKQGWA; listed as Homo sapiens)	significant shortening	7.1 ± 2.4 ms	9 ± 2 ms	significant shortening	41 ms	significantly shorter	19 + 4* msec	243 + 16 min^−1	76 + 4 msec	26 + 1 msec	5
CC[C@H](C)[C@@H]1NC(=O)[C@H](CCCNC(=N)N)NC(=O)[C@H](CC(=O)O)NC(=O)[C@H](CCSC)NC(=O)[C@H](CCCNC(=N)N)NC(=O)CNC(=O)CNC(=O)[C@H](Cc2ccccc2)NC(=O)[C@@H](NC(=O)[C@H](CO)NC(=O)[C@H](CO)NC(=O)[C@H](CCCNC(=N)N)NC(=O)[C@H](CCCNC(=N)N)NC(=O)[C@H](CC(C)C)NC(=O)[C@@H](N)CO)CSSC[C@@H](C(=O)N[C@@H](CC(N)=O)C(=O)N[C@@H](CO)C(=O)N[C@@H](Cc2ccccc2)C(=O)N[C@@H](CCCNC(=N)N)C(=O)N[C@@H](Cc2ccc(O)cc2)C(=O)O)NC(=O)CNC(=O)[C@H](CC(C)C)NC(=O)CNC(=O)[C@H](CO)NC(=O)[C@H](CCC(N)=O)NC(=O)[C@H](C)NC(=O)CNC1=O [ANP, atrial natriuretic peptide]	not significantly changed		0.7 ± 1.7 ms			not a significant difference	28 + 2 msec	255 + 8 min^−1	73 + 4 msec	23 + 1 msec	3
